For 34 molecules, IC50 results are on record in US7834024B2, “Compositions and methods for inhibition of the JAK pathway” (Rigel Pharmaceuticals, Inc., priority 2007, dated 2010).

By IC50 is commonly meant the midpoint of a concentration-inhibition curve.

The first assay has as its system Ramos B-Cell Line Stimulated with IL-4 (JAK-1 and JAK-3 / Stat-6, CD23). Description: Assay for Ramos B-Cell Line Stimulated with IL-4 (CD23 upregulation, FACS). Format: cell-based. The settings on record: Homo sapiens, Ramos, human Ramos B cells, compound 1 hour, IL-4 50 units/mL for 20-24 hours, anti-CD23-PE FACS; read-out: Example 2 (IC50). The essentials:
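Human Ramos B cells (5×10^4 per point, RPMI with 5% serum) pre-incubated 1 hour at 37° C with compound or DMSO, then stimulated with IL-4 at 50 units/mL final for 20-24 hours. CD23 upregulation measured by flow cytometry.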
Consider `CN1CCN(C(=O)c2cccc(Nc3ncc(F)c(Nc4ccc(OCC(N)=O)cc4)n3)c2)CC1` [Compound I-37, N4-(4-Aminocarbonylmethoxyphenyl)-5-fluoro-N2-[3-((4-methylpiperazin-1-yl)carbonyl)phenyl]-2,4-pyrimidinediamine], for which the half-maximal inhibitory concentration (IC50) was found to be 2240 nM.

Consider `CCc1cc(Nc2ncc(F)c(Nc3ccc4c(c3)NC(=O)C(F)(F)O4)n2)cc(C#N)c1Cl` [II-24, N2-(4-Chloro-3-cyano-5-ethylphenyl)-N4-(2,2-difluoro-3-oxo-4H-benzo[1,4]oxazin-6-yl)-5-fluoro-2,4-pyrimidinediamine], for which the IC50 was 1740 nM.

As to `C#CCOc1ccc(Nc2nc(Nc3ccc(C(N)=S)cc3)ncc2F)cc1` [Compound I-7, N2-(4-Aminocarbonothioylphenyl)-5-fluoro-N4-[4-(2-propynyloxy)phenyl]-2,4-pyrimidinediamine], the IC50 was found to be 223 nM.

As for `N#CCc1ccc(Nc2ncc(F)c(Nc3cccc(OCC(N)=O)c3)n2)cc1` [Compound I-65, N4-(3-Aminocarbonylmethoxyphenyl)-N2-(4-cyanomethylphenyl)-5-fluoro-2,4-pyrimidinediamine], the IC50 came to 189 nM.

Regarding `CC(C#N)Oc1ccc(Nc2nc(Nc3ccc(CC#N)cc3)ncc2F)cc1` (stereo not shown) [Compound I-78, N4-[4-(1-Cyanoethoxy)phenyl]-N2-(4-cyanomethylphenyl)-5-fluoro-2,4-pyrimidinediamine], the IC50 was found to be 117 nM.

Consider `NC(=O)COc1ccc(Nc2nc(Nc3cccc(C(N)=O)c3)ncc2F)cc1` [Compound I-23, N4-(4-Aminocarbonylmethoxyphenyl)-N2-(3-aminocarbonylphenyl)-5-fluoro-2,4-pyrimidinediamine], for which the IC50 came to 3070 nM.

Regarding `N#CCOc1ccc(Nc2ncc(F)c(Nc3ccc(OCC#N)c(Cl)c3)n2)cc1Cl` [Compound I-107, N2,N4-Bis(3-chloro-4-cyanomethoxyphenyl)-5-fluoro-2,4-pyrimidinediamine], the IC50 came to 350 nM.

As for `N#CCc1ccc(Nc2ncc(F)c(Nc3ccc(OCC(N)=O)cc3)n2)cc1` [Compound I-76, N4-(4-Aminocarbonylmethoxyphenyl)-N2-(4-cyanomethylphenyl)-5-fluoro-2,4-pyrimidinediamine], the IC50 came out at 278 nM.

As to `Cc1cc(Nc2nc(Nc3cccc(C(N)=O)c3)ncc2F)cc(C)c1OC(C)C#N` (stereo not shown) [Compound I-96, N2-(3-Aminocarbonylphenyl)-N4-[4-(1-cyanoethoxy)-3,5-dimethylphenyl]-5-fluoro-2,4-pyrimidinediamine], the IC50 came out at 255 nM.

With `C#CCOc1ccc(Nc2nc(Nc3ccc4c(c3)C(=O)NCC4)ncc2F)cc1` [Compound V-2, 5-Fluoro-N2-(1-oxo-1,2,3,4-tetrahydroisoquinolin-7-yl)-N4-[4-(2-propynyloxy)phenyl]-2,4-pyrimidinediamine], the IC50 was 355 nM.

Turning to `CC(C#N)Oc1ccc(Nc2nc(Nc3cccc(C(N)=O)c3)ncc2F)cc1` (stereo not shown) [Compound I-82, N2-(3-Aminocarbonylphenyl)-N4-[4-(1-cyanoethoxy)phenyl]-5-fluoro-2,4-pyrimidinediamine], the half-maximal inhibitory concentration (IC50) amounted to 350 nM.

Turning to `N#CCc1ccc(Nc2nc(Nc3ccc(C(N)=O)cc3)ncc2F)cc1` [Compound I-67, N2-(4-Aminocarbonylphenyl)-N4-(4-cyanomethylphenyl)-5-fluoro-2,4-pyrimidinediamine], the IC50 amounted to 171 nM.

Take `CC(C)OC(=O)COc1ccc(Nc2nc(Nc3ccc(C(=O)N4CCN(C)CC4)cc3)ncc2F)cc1` [Compound I-26, 5-Fluoro-N4-[4-((1-methylethoxy)carbonylmethoxy)phenyl]-N2-[4-((4-methylpiperazin-1-yl)carbonyl)phenyl]-2,4-pyrimidinediamine]: the concentration for half-maximal inhibition (IC50) stood at 1830 nM.

`CN1CCN(c2ccc(Nc3ncc(F)c(Nc4ccc(CC#N)cc4)n3)cc2C(N)=O)CC1` [Compound I-74, N2-[3-Aminocarbonyl-4-(4-methylpiperazin-1-yl)phenyl]-N4-(4-cyanomethylphenyl)-5-fluoro-2,4-pyrimidinediamine]: the IC50 turned out to be 429 nM.

Consider `N#CCc1ccc(Nc2ncc(F)c(Nc3ccc(F)c(Cl)c3)n2)cc1` [Compound I-117, N4-(3-Chloro-4-fluorophenyl)-N2-(4-cyanomethylphenyl)-5-fluoro-2,4-pyrimidinediamine], for which the 50% inhibitory concentration (IC50) is 6710 nM.

`CNC(=O)c1cc(Nc2ncc(F)c(Nc3ccc(OCC#N)cc3)n2)ccc1N1CCN(C)CC1` [Compound I-43, N4-(4-Cyanomethoxyphenyl)-5-fluoro-N2-[3-methylaminocarbonyl-4-(4-methylpiperazin-1-yl)phenyl]-2,4-pyrimidinediamine]: the IC50 was found to be 3.56 nM.

For the molecule `Cc1cc(Nc2nc(Nc3ccc(C(N)=O)c(Cl)c3)ncc2F)ccc1N1CCN(C)CC1` [Compound I-11, N2-(4-Aminocarbonyl-3-chlorophenyl)-5-fluoro-N4-[3-methyl-4-(4-methylpiperazin-1-yl)phenyl]-2,4-pyrimidinediamine], the IC50 was found to be 56.3 nM.

As for `N#CCOc1ccc(Nc2nc(Nc3ccc(C#N)cc3)ncc2F)cc1` [Compound I-29, N2-(4-Cyanophenyl)-N4-(4-cyanomethoxyphenyl)-5-fluoro-2,4-pyrimidinediamine], the IC50 turned out to be 74.6 nM.

In the case of `CNC(=O)c1cc(Nc2ncc(F)c(Nc3ccc(CC#N)cc3)n2)ccc1N1CCN(C)CC1` [Compound I-75, N4-(4-Cyanomethylphenyl)-5-fluoro-N2-[3-methylaminocarbonyl-4-(4-methylpiperazin-1-yl)phenyl]-2,4-pyrimidinediamine], the concentration for half-maximal inhibition (IC50) worked out at 694 nM.

Regarding `Cc1nc(COc2ccc(Nc3nc(Nc4ccc(N5CCN(C)CC5)c(C(N)=O)c4)ncc3F)cc2)no1` [Compound I-62, N2-[3-Aminocarbonyl-4-(4-methylpiperazin-1-yl)phenyl]-5-fluoro-N4-[4-((5-methyl-1,2,4-oxadiazol-3-yl)methoxy)phenyl]-2,4-pyrimidinediamine], the IC50 is 80.5 nM.

Regarding `Cc1cc(Nc2nc(Nc3ccc(C(N)=O)cc3)ncc2F)cc(C)c1OCC#N` [Compound I-90, N2-(4-Aminocarbonylphenyl)-N4-(4-cyanomethoxy-3,5-dimethylphenyl)-5-fluoro-2,4-pyrimidinediamine], the IC50 is 91.5 nM.

For `Cc1nc(COc2ccc(Nc3nc(Nc4ccc(C#N)cc4)ncc3F)cc2)no1` [Compound I-58, N2-(4-Cyanophenyl)-5-fluoro-N4-[4-((5-methyl-1,2,4-oxadiazol-3-yl)methoxy)phenyl]-2,4-pyrimidinediamine], the half-maximal inhibitory concentration (IC50) came out at 967 nM.

`NC(=O)COc1cccc(Nc2nc(Nc3ccc(C(N)=O)cc3)ncc2F)c1` [Compound I-32, N4-(3-Aminocarbonylmethoxyphenyl)-N2-(4-aminocarbonylphenyl)-5-fluoro-2,4-pyrimidinediamine]: the IC50 came out at 184 nM.

On to `N#Cc1ccc(Nc2ncc(F)c(Nc3ccc(OCC(N)=O)cc3)n2)cc1` [Compound I-24, N4-(4-Aminocarbonylmethoxyphenyl)-N2-(4-cyanophenyl)-5-fluoro-2,4-pyrimidinediamine], for which the IC50 was 245 nM.

Consider `N#CCc1ccc(Nc2ncc(F)c(Nc3ccc(F)c(C#N)c3)n2)cc1` [Compound I-118, N4-(3-Cyano-4-fluorophenyl)-N2-(4-cyanomethylphenyl)-5-fluoro-2,4-pyrimidinediamine], for which the IC50 is 103000 nM.

The assay is the same for the next values; noted with them: human Ramos B cells, compound 1 hour, IL-4 50 units/mL for 20-24 hours, anti-CD23-PE FACS; read-out: Example 2 (IC50).
On to “N2-(4-Cyanomethyl phenyl)-5-fluoro-N4-(5-methoxycarbonylthiophen-2-yl)-2,4-pyrimidinediamine [Compound I-122]”, for which the IC50 was found to be 723 nM.

In the case of `CNC(=O)COc1cc(Nc2ncc(F)c(Nc3ccc4c(n3)NC(=O)C(C)(C)O4)n2)cc(OC)c1OC` [II-21, N2-[4,5-Dimethoxy-3-(N-methylaminocarbonylmethyleneoxy)phenyl]-N4-(2,2-dimethyl-3-oxo-4H-5-pyrido[1,4]oxazin-6-yl)-5-fluoro-2,4-pyrimidinediamine], the IC50 came to 130 nM.

With `Cc1cnc(Nc2cccc(C(N)=O)c2)nc1Nc1ccc(OCc2ccccn2)cc1` [Compound I-134, N2-(3-Aminocarbonylphenyl)-5-methyl-N4-[4-(2-pyridinylmethyleneoxy)phenyl]-2,4-pyrimidinediamine], the IC50 worked out at 84.6 nM.

As to `CCN(CC)CCNC(=O)c1ccc(Nc2ncc(F)c(Nc3ccc(OCc4ccccn4)cc3)n2)cc1` [Compound I-135, N2-[4-(2-(N,N-Diethylamino)ethylaminocarbonyl)phenyl)-5-fluoro-N4-[4-(2-pyridinylmethyleneoxy)phenyl]-2,4-pyrimidinediamine], the concentration for half-maximal inhibition (IC50) amounted to 56 nM.

For `Cc1cc(COc2ccc(Nc3nc(Nc4ccc(CC#N)cc4)ncc3F)cc2)no1` [Compound I-130, N2-(4-Cyanomethylphenyl)-5-fluoro-N4-[4-((5-methylisoxazol-3-yl)methyleneoxy)phenyl]-2,4-pyrimidinediamine], the IC50 worked out at 344 nM.

Consider `CNC(=O)COc1cccc(Nc2ncc(Br)c(Nc3ccc4c(c3)OCCO4)n2)c1` [II-1, 5-Bromo-N4-(3,4-ethylenedioxyphenyl)-N2-[3-(N-methylaminocarbonylmethyleneoxy)phenyl]-2,4-pyrimidinediamine], for which the half-maximal inhibitory concentration (IC50) was 80.9 nM.

For `CNC(=O)COc1cccc(Nc2ncc(C)c(Nc3cnc4c(c3)OC(F)(F)C(=O)N4)n2)c1` [II-36, N4-(2,2-Difluoro-3-oxo-4H-5-pyrido[1,4]oxazin-7-yl)-5-methyl-N2-[3-(N-methylaminocarbonylmethyleneoxy)phenyl]-2,4-pyrimidinediamine], the concentration for half-maximal inhibition (IC50) turned out to be 3780 nM.

For `CN1CCN(C(=O)c2ccc(Nc3ncc(F)c(Nc4cccc(OCC(N)=O)c4)n3)cc2)CC1` [Compound I-49, N4-(3-Aminocarbonylmethoxyphenyl)-5-fluoro-N2-[4-((4-methylpiperazin-1-yl)carbonyl)phenyl]-2,4-pyrimidinediamine], the IC50 is 2290 nM.

As to `CC(C#N)Oc1ccc(Nc2nc(Nc3ccc(C#N)cc3)ncc2F)cc1` (stereo not shown) [Compound I-79, N4-[4-(I-Cyanoethoxy)phenyl]-N2-(4-cyanophenyl)-5-fluoro-2,4-pyrimidinediamine], the concentration for half-maximal inhibition (IC50) amounted to 361 nM.
